Holding throughout (type): biochemical
One assay addresses T1, factor Xa (Homo sapiens, UniProt P00742).
T1 construct: Human factors X, Xa, IXa, XIa, and XIIa are purchased from Enzyme Research Laboratories; purchased Enzyme Research Laboratories, South Bend, Ind
The assay can be described thus: Serine protease inhibition (Kass), factor Xa. As to the method:
(§1) By substantially following the procedures described above for human thrombin, and using other human blood coagulation system serine proteases and using fibrinolytic system serine proteases, with the appropriate chromogenic substrates, identified below, the selectivity of the compounds of the present invention with respect to the coagulation factor serine proteases and to the fibronolytic serine proteases are evaluated as well as their substantial lack of interference with human plasma clot fibrinolysis.
(§2) Human factors X, Xa, IXa, XIa, and XIIa are purchased from Enzyme Research Laboratories, South Bend, Ind.; human urokinase from Leo Pharmaceuticals, Denmark; and recombinant activated Protein C (aPC) is prepared at Eli Lilly and Co. substantially according to U.S. Pat. No. 4,981,952 incorporated by reference herein in its entirety. Chromogenic substrates: N-Benzoyl-Ile-Glu-Gly-Arg-p-nitroanilide (for factor Xa); N-Cbz-D-Arg-Gly-Arg-p-nitroanilide (for factor IXa assay as the factor Xa substrate); Pyroglutamyl-Pro-Arg-p-nitroanilide (for Factor XIa and for aPC); H-D-Pro-Phe-Arg-p-nitroanilide (for factor XIIa); and Pyroglutamyl-Gly-Arg-p-nitroanilide (for urokinase); are purchased from KabiVitrum, Stockholm, Sweden, or from Midwest Biotech, Fishers, Ind. Bovine trypsin is purchased from Worthington Biochemicals, Freehold, N.J., and human plasma kallikrein from Kabi Vitrum, Stockholm, Sweden. Chromogenic substrate H-D-Pro-Phe-Arg-p-nitroanilide for plasma kallikrein is purchased from Kabi Vitrum, Stockholm, Sweden. N-Benzoyl-Phe-Val-Arg-p-nitroanilide, the substrate for human thrombin and for trypsin, is synthesized according to procedures described above for the compounds of the present invention, using known methods of peptide coupling from commercially available reactants, or purchaed from Midwest Biotech, Fishers, Ind.

In assay [1] the test system is human plasma. As to the kind of experiment: Human plasma anticoagulation, prothrombin time (PT). On the procedure:
(§3) Fibrinogen is prepared from in-date ACD human blood as the fraction I-2 according to previous procedures and specifications. Smith, Biochem. […] Coagulation reagents ACTIN, Thromboplastin, and Human plasma are from Baxter Healthcare Corp., Dade Division, Miami, Fla. Bovine thrombin from Parke-Davis (Detroit, Mich.) is used for coagulation assays in plasma. Coagulation assay procedures are as previously described. […] A CoAScreener coagulation instrument (American LABor, Inc.) is used for all coagulation assay measurements. […] The compounds of formula I are added to human or animal plasma over a wide range of concentrations to determine prolongation effects on the APTT, PT, and TT assays. Linear extrapolations are performed to estimate the concentrations required to double the clotting time for each assay.

The target in assay [2] is T2, tissue plasminogen activator (t-PA) (Homo sapiens, UniProt P00750).
T2 construct: purchased American Diagnostica, Greenwich, Conn
The assay can be described thus: Serine protease inhibition (Kass), t-PA. As to the method:
as §1
(§4) Human plasmin is purchased from Boehringer Mannheim, Indianapolis, Ind.; nt-PA is purchased as single chain activity reference from American Diagnostica, Greenwich, Conn.; modified-t-PA6 (mt-PA6) is prepared at Eli Lilly and Company by procedure known in the art (See, Burck, et al., J. Biol. Chem., 265, […] (1990). Plasmin chromogenic substrate H-D-Val-Leu-Lys-p-nitroanilide and tissue plasminogen activator (t-PA) substrate H-D-Ile-Pro-Arg-p-nitroanilide are purchased from Kabi Vitrum, Stockholm, Sweden.

A further assay deals with human thrombin (Homo sapiens, UniProt P00734). The assay can be described thus: Thrombin amidase inhibition (Kass), chromogenic substrate. As to the method:
The assay is carried out by mixing 50 μl buffer (0.03M Tris, 0.15M NaCl, pH 7.4) with 25 μl of human thrombin solution (purified human thrombin, Enzyme Research Laboratories, South Bend, Ind., at 8 NIH units/ml) and 25 μl of test compound in a solvent (50% aqueous methanol (v:v)). Then 150 μl of an aqueous solution of the chromogenic substate (at 0.25 mg/ml) are added and the rates of hydrolysis of the substrate are measured by monitoring the reactions at 405 nm for the release of p-nitroaniline. Standard curves are constructed by plotting free thrombin concentration against hydrolysis rate. […] The amount of free inhibitor in each assay is calculated by subtracting the number of moles of bound thrombin from the number of moles of added inhibitor (test compound).
The Kass value is the hypothetical equilibrium constant for the reaction between thrombin and the test compound (I) . [formula]
Kass is calculated for a range of concentrations of test compounds and the mean value reported in units of liter per mole.

In assay [3] the test system is human plasma. As to the kind of experiment: Human plasma anticoagulation, activated partial thromboplastin time (APTT). As to the method: as §3
In another assay the target is T3, Bovine trypsin (Bos taurus, UniProt P00760).
T3 construct: Bovine trypsin is purchased from Worthington Biochemicals; purchased Worthington Biochemicals, Freehold, N.J
T3 sequence (P00760 24-246): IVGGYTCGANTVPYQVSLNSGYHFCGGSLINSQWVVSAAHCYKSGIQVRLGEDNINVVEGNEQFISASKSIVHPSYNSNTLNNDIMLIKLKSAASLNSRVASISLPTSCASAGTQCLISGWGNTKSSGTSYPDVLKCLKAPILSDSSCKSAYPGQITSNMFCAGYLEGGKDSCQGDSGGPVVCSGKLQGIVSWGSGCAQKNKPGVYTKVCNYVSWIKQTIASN
As to the kind of experiment: Serine protease inhibition (Kass), trypsin. As to the method:
as §1, §2

The next assay deals with T4, Human plasmin (Homo sapiens, UniProt P00747).
T4 construct: Human plasmin is purchased from Boehringer Mannheim; purchased Boehringer Mannheim, Indianapolis, Ind
The assay can be described thus: Serine protease inhibition (Kass), plasmin. On the procedure: as §1, §4

For assay [4], the system named is human plasma. The assay can be described thus: Human plasma anticoagulation, thrombin time (TT). As to the method: as §3

Molecules are shown by their SMILES.

T2 sequence (P00750 36-562): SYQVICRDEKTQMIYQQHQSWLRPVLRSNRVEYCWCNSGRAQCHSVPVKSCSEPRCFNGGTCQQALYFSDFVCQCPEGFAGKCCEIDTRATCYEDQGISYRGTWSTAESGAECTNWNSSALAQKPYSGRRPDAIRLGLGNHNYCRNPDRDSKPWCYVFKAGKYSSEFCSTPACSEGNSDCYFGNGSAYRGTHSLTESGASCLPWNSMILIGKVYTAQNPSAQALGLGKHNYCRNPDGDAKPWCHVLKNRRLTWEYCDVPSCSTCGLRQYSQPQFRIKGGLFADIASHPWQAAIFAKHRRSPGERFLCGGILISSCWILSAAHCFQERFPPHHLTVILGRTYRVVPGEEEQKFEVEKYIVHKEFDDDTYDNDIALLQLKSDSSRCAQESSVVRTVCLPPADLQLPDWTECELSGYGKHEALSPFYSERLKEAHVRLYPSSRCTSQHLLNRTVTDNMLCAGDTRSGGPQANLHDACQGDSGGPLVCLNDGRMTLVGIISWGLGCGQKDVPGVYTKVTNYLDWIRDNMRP
T4 sequence (P00747 581-810 limits assumed): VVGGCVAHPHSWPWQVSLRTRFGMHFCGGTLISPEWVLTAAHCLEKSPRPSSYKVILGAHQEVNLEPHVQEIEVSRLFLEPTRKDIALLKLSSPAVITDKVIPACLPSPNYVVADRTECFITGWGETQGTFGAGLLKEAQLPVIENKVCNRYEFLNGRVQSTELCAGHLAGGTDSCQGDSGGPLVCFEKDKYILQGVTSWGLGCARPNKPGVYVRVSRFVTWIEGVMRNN
T4 sequence (P00747 97-580 partner limits assumed): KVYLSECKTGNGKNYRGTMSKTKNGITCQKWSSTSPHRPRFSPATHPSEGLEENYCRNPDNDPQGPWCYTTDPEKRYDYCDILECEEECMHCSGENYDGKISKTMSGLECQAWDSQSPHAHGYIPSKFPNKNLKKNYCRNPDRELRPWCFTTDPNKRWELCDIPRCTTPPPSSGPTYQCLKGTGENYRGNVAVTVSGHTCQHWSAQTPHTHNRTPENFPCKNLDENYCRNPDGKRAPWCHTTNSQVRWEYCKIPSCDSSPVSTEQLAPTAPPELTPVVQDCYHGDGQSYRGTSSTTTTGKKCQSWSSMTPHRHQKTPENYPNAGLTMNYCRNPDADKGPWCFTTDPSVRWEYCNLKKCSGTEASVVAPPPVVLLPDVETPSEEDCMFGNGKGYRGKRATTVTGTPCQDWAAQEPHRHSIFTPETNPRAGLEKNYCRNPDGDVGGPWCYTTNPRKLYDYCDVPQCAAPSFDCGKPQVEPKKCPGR
T1 sequence (P00742 235-488 limits assumed): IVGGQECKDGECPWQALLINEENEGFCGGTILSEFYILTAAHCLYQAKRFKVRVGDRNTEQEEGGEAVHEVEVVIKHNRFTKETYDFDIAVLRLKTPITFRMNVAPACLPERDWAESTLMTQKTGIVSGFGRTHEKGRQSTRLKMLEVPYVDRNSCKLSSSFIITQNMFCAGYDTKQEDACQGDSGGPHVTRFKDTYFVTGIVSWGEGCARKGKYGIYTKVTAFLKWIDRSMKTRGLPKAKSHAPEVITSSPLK
T1 sequence (P00742 41-179 partner limits assumed): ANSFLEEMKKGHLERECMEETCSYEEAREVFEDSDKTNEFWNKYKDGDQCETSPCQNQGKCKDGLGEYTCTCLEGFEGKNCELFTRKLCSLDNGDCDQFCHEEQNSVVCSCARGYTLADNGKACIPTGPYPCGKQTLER

With `CCS(=O)(=O)N[C@@H](C(=O)N1CCC[C@H]1C(=O)N[C@H](C=O)CCCNC(=N)N)c1ccccc1.Cl` [Example 64, N-(ethylsulfonyl)-D-phenylglycinyl-L-Prolinyl-L-Arginine Aldehyde Hydrochloride], on factor Xa, the “Kass Xa” value was 45 L/mol × 10^6. Also, the “2 × Clotting time PT” value in the assay on human plasma [1] was 880 ng/mL. In addition, the “Kass t-PA” value in assay [2] came out at 0.34 L/mol × 10^6. Further, the “Kass Human Thrombin” value at human thrombin worked out at 510 L/mol × 10^6. Further, the “2 × Clotting time APTT” value in the assay with human plasma [3] amounted to 250 ng/mL. The “Kass Trypsin” value on Bovine trypsin worked out at 160 L/mol × 10^6. Besides, at Human plasmin, the “Kass Plasmin” value is reported as 14 L/mol × 10^6. Besides, the “2 × Clotting time TT” value in the assay on human plasma [4] came to 34 ng/mL.
With `COc1ccc(OC)c(S(=O)(=O)N[C@H](Cc2ccccc2)C(=O)N2CCC[C@H]2C(=O)N[C@H](C=O)CCCNC(=N)N)c1.Cl` [Example 59, N-(2,5-dimethoxyphenylsulfonyl)-D-phenylalanyl-L-Prolinyl-L-Arginine Aldehyde Hydrochloride], the “Kass Xa” value on factor Xa is on record as 8.8 L/mol × 10^6. The “2 × Clotting time PT” value in the assay with human plasma [1] is listed as 2,000 ng/mL. Besides, in assay [2], the “Kass t-PA” value was 1.5 L/mol × 10^6. In addition, at human thrombin, the “Kass Human Thrombin” value is recorded as 200 L/mol × 10^6. Also, the “2 × Clotting time APTT” value in the assay on human plasma [3] came out at 550 ng/mL. In addition, on Bovine trypsin, the “Kass Trypsin” value was 150 L/mol × 10^6. For the same compound, the “Kass Plasmin” value at Human plasmin was 9.5 L/mol × 10^6. Further, the “2 × Clotting time TT” value in the assay with human plasma [4] is 92 ng/mL.
With `Cl.N=C(N)NCCC[C@@H](C=O)NC(=O)[C@@H]1CCCN1C(=O)[C@@H](Cc1ccccc1)NC(=O)C1CCCCC1` [Example 71, N-(cylohexoyl)-D-phenylalanyl-L-Prolinyl-L-Arginine Aldehyde Hydrochloride], the “Kass Xa” value on factor Xa is listed as 0.064 L/mol × 10^6. In the assay with human plasma [1], the “2 × Clotting time PT” value was 1,800 ng/mL. Besides, in assay [2], the “Kass t-PA” value was 0.26 L/mol × 10^6. In addition, on human thrombin, the “Kass Human Thrombin” value was found to be 20 L/mol × 10^6. Also, in the assay with human plasma [3], the “2 × Clotting time APTT” value is recorded as 1,300 ng/mL. Further, on Bovine trypsin, the “Kass Trypsin” value is reported as 5.9 L/mol × 10^6. For the same compound, the “Kass Plasmin” value at Human plasmin was determined as 0.24 L/mol × 10^6. In addition, the “2 × Clotting time TT” value in the assay on human plasma [4] is on record as 63 ng/mL.
As to `C[C@@]1(C(=O)N[C@H](C=O)CCCNC(=N)N)CCCN1C(=O)[C@@H](Cc1ccccc1)NS(C)(=O)=O.Cl` [Example 43, N-methylsulfonyl-D-phenylalanyl(αmethyl)-L-prolinyl-L-arginine aldehyde hydrochloride], the “Kass Xa” value at factor Xa is 0.23 L/mol × 10^6. Further, the “2 × Clotting time PT” value in the assay with human plasma [1] is 1,600 ng/mL. Besides, the “Kass t-PA” value in assay [2] turned out to be 0.027 L/mol × 10^6. On human thrombin, the “Kass Human Thrombin” value was found to be 31 L/mol × 10^6. Besides, the “2 × Clotting time APTT” value in the assay with human plasma [3] is reported as 1,500 ng/mL. Further, the “Kass Trypsin” value at Bovine trypsin was determined as 28 L/mol × 10^6. Moreover, the “Kass Plasmin” value at Human plasmin was determined as 0.56 L/mol × 10^6. The “2 × Clotting time TT” value with human plasma [4] is 41 ng/mL.
As for `CCS(=O)(=O)NC(C)(C(=O)N1CCC[C@H]1C(=O)N[C@H](C=O)CCCNC(=N)N)c1ccccc1.Cl` (stereo partly drawn) [Example 41, N-ethylsulfonyl-(D,L)-phenylglycinyl(αmethyl)-L-prolinyl-L-arginine aldehyde hydrochloride], on factor Xa, the “Kass Xa” value was 0.49 L/mol × 10^6. Moreover, the “2 × Clotting time PT” value in the assay with human plasma [1] is listed as 2,100 ng/mL. In assay [2], the “Kass t-PA” value came to 0.023 L/mol × 10^6. Also, the “Kass Human Thrombin” value at human thrombin was found to be 430 L/mol × 10^6. For the same compound, the “2 × Clotting time APTT” value in the assay on human plasma [3] is given as 1,200 ng/mL. Moreover, the “Kass Trypsin” value at Bovine trypsin is 42 L/mol × 10^6. Besides, the “Kass Plasmin” value on Human plasmin is 1.2 L/mol × 10^6. Further, in the assay with human plasma [4], the “2 × Clotting time TT” value worked out at 52 ng/mL.
With `Cl.N=C(N)NCCC[C@@H](C=O)NC(=O)[C@@H]1CCCN1C(=O)[C@@H](Cc1ccccc1)NC(=O)Cc1ccccc1` [Example 70, N-(phenylacetyl)-D-phenylalanyl-L-Prolinyl-L-Arginine Aldehyde Hydrochloride], on factor Xa, the “Kass Xa” value came out at 0.10 L/mol × 10^6. Besides, the “2 × Clotting time PT” value in the assay on human plasma [1] is listed as 2,000 ng/mL. For the same compound, the “Kass t-PA” value in assay [2] was found to be 0.37 L/mol × 10^6. Also, the “Kass Human Thrombin” value on human thrombin came to 29 L/mol × 10^6. In addition, the “2 × Clotting time APTT” value in the assay on human plasma [3] is 1,100 ng/mL. Besides, the “Kass Trypsin” value at Bovine trypsin is 14 L/mol × 10^6. The “Kass Plasmin” value on Human plasmin was 0.54 L/mol × 10^6. For the same compound, the “2 × Clotting time TT” value in the assay on human plasma [4] worked out at 64 ng/mL.
Consider `Cl.Cn1c(C(=O)N[C@@](C)(C(=O)N2CC[C@H]2C(=O)N[C@H](C=O)CCCNC(=N)N)c2ccccc2)cc2ccccc21` [Example 23, 1-methylindole-2-carbonyl-D-(α-methyl)phenylglycine-Azt-Arg-H hydrochloride], for which, on factor Xa, the “Kass Xa” value was determined as 0.06 L/mol × 10^6. Moreover, in the assay with human plasma [1], the “2 × Clotting time PT” value was 1,980 ng/mL. Besides, the “Kass t-PA” value in assay [2] came to 0.02 L/mol × 10^6. The “Kass Human Thrombin” value on human thrombin came to 79 L/mol × 10^6. Further, the “2 × Clotting time APTT” value in the assay on human plasma [3] is 1,800 ng/mL. Besides, on Bovine trypsin, the “Kass Trypsin” value was 29 L/mol × 10^6. In addition, the “Kass Plasmin” value on Human plasmin is listed as 0.55 L/mol × 10^6. Also, the “2 × Clotting time TT” value in the assay on human plasma [4] was found to be 59 ng/mL.
Regarding `CCS(=O)(=O)N[C@@H](Cc1ccccc1)C(=O)N1CCC[C@@]1(C)C(=O)N[C@H](C=O)CCCNC(=N)N.Cl` [Example 33, N-ethylsulfonylphenylalanyl(αmethyl)-L-prolinyl-L-arginine aldehyde hydrochloride], the “Kass Xa” value at factor Xa is 0.027 L/mol × 10^6. Further, in the assay with human plasma [1], the “2 × Clotting time PT” value is given as 7,300 ng/mL. In addition, the “Kass t-PA” value in assay [2] was 0.007 L/mol × 10^6. The “Kass Human Thrombin” value at human thrombin stood at 0.6 L/mol × 10^6. Also, in the assay with human plasma [3], the “2 × Clotting time APTT” value is on record as 5,400 ng/mL. Moreover, the “Kass Trypsin” value on Bovine trypsin was 1.7 L/mol × 10^6. Also, the “Kass Plasmin” value on Human plasmin came to 0.056 L/mol × 10^6. Besides, the “2 × Clotting time TT” value in the assay with human plasma [4] is 300 ng/mL.
For `Cl.Cl.N=C(N)NCCC[C@@H](C=O)NC(=O)[C@]1(Cc2ccccc2)CCCN1C(=O)[C@@H]1CCCN1` [Example 25, Prolinyl (αbenzyl)-L-Prolinyl-L-Arginine Aldehyde Dihydrochloride], the “Kass Xa” value at factor Xa is given as 0.27 L/mol × 10^6. The “2 × Clotting time PT” value with human plasma [1] was 1,400 ng/mL. The “Kass t-PA” value in assay [2] is reported as 0.0045 L/mol × 10^6. Besides, the “Kass Human Thrombin” value at human thrombin came to 350 L/mol × 10^6. For the same compound, in the assay on human plasma [3], the “2 × Clotting time APTT” value is 960 ng/mL. For the same compound, the “Kass Trypsin” value at Bovine trypsin came to 43 L/mol × 10^6. The “Kass Plasmin” value at Human plasmin was found to be 0.77 L/mol × 10^6. Further, the “2 × Clotting time TT” value in the assay with human plasma [4] worked out at 28 ng/mL.

(Values after patent publication US5436229A, “Bisulfite adducts of arginine aldehydes” (Eli Lilly and Company, priority 1994, dated 1995).)
